Experimental data published in US6339045B1, “N-(unsubstituted or substituted)-4-substituted-6-(unsubstituted or substituted)phenoxy-2-pyridinecarboxamides or thiocarboxamides, processes for producing the same, and herbicides” (Kureha Kagaku Kogyo Kabushiki Kaisha, priority 1995, dated 2002).

Columns and labels:
Assay in all cases: Herbicidal effect by foliage and soil treatment
Type in all cases: in vivo
Details in all cases: 10 g ai/10a, evaluated after 14 days
[1] = tested on: cleavers (Galium aparine)
Summary of the method: (§1)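 Potted seedlings at cotyledon-to-bifoliate stage were sprayed with compound in Tween 20/water at a predetermined rate and grown in a greenhouse at 19 to 25° C. Growth was rated against untreated plants after 14 days.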

[2] = tested on: wild chamomile (Matricaria chamomilla)
Summary of the method: as §1

[3] = tested on: black nightshade (Solanum nigrum)
Summary of the method: as §1

[4] = tested on: velvetleaf (Abutilon theophrasti)
Summary of the method: as §1

[5] = tested on: field bindweed (Convolvulus arvensis)
Summary of the method: as §1

[6] = tested on: ivyleafspeedwell (Veronica hederaefolia)
Summary of the method: as §1

[7] = tested on: common blackjack (Bidens pilosa)
Summary of the method: as §1

[8] = tested on: redroot pigweed (Amaranthus retroflexus)
Summary of the method: as §1

[9] = tested on: kediock (Sinapis arvensis)
Summary of the method: as §1

[10] = tested on: common chickweed (Stellaria media)
Summary of the method: as §1

[11] = tested on: sicklepod (Cassia obtusifolia)
Summary of the method: as §1

CCC(=O)CNC(=O)c1cc(OC)cc(Oc2cccc(C(F)(F)F)c2)n1 [Compound I-86, N-(2-oxobutyl)-4-methoxy-6-{3-(trifluoromethyl)phenoxy}-2-pyridine carboxamide]
herbicidal activity rating, GA (Galium aparine) [1]: 5 (percentage of weeds killed was not less than 80%)
herbicidal activity rating, MC (Matricaria chamomilla) [2]: 4 (percentage of weeds killed was not less than 60% and less than 80%)
herbicidal activity rating, SN (Solanum nigrum) [3]: 5 (percentage of weeds killed was not less than 80%)
herbicidal activity rating, AT (Abutilon theophrasti) [4]: 5 (percentage of weeds killed was not less than 80%)
herbicidal activity rating, CA (Convolvulus arvensis) [5]: 3 (percentage of weeds killed was not less than 40% and less than 60%)
herbicidal activity rating, VH (Veronica hederaefolia) [6]: 5 (percentage of weeds killed was not less than 80%)
herbicidal activity rating, BP (Bidens pilosa) [7]: 4 (percentage of weeds killed was not less than 60% and less than 80%)
herbicidal activity rating, AR (Amaranthus retroflexus) [8]: 5 (percentage of weeds killed was not less than 80%)
herbicidal activity rating, SA (Sinapis arvensis) [9]: 5 (percentage of weeds killed was not less than 80%)
herbicidal activity rating, SM (Stellaria media) [10]: 5 (percentage of weeds killed was not less than 80%)
herbicidal activity rating, CO (Cassia obtusifolia) [11]: 4 (percentage of weeds killed was not less than 60% and less than 80%)

CCOCNC(=O)c1cc(OC)cc(Oc2cccc(C(F)(F)F)c2)n1 [Compound I-87, N-(ethoxymethyl)-4-methoxy-6-{3-(trifluoromethyl)phenoxy}-2-pyridine carboxamide]
herbicidal activity rating, GA (Galium aparine) [1]: 5 (percentage of weeds killed was not less than 80%)
herbicidal activity rating, MC (Matricaria chamomilla) [2]: 5 (percentage of weeds killed was not less than 80%)
herbicidal activity rating, SN (Solanum nigrum) [3]: 5 (percentage of weeds killed was not less than 80%)
herbicidal activity rating, AT (Abutilon theophrasti) [4]: 5 (percentage of weeds killed was not less than 80%)
herbicidal activity rating, CA (Convolvulus arvensis) [5]: 5 (percentage of weeds killed was not less than 80%)
herbicidal activity rating, VH (Veronica hederaefolia) [6]: 5 (percentage of weeds killed was not less than 80%)
herbicidal activity rating, BP (Bidens pilosa) [7]: 5 (percentage of weeds killed was not less than 80%)
herbicidal activity rating, AR (Amaranthus retroflexus) [8]: 5 (percentage of weeds killed was not less than 80%)
herbicidal activity rating, SA (Sinapis arvensis) [9]: 5 (percentage of weeds killed was not less than 80%)
herbicidal activity rating, SM (Stellaria media) [10]: 5 (percentage of weeds killed was not less than 80%)
herbicidal activity rating, CO (Cassia obtusifolia) [11]: 5 (percentage of weeds killed was not less than 80%)

COc1cc(Oc2cccc(C(F)(F)F)c2)nc(C(=O)NC(OC)C(F)(F)F)c1 (centres unmarked) [Compound I-88, N-(1-methoxy-2,2,2-trifluoroethyl)-4-methoxy-6-{3-(trifluoromethyl)phenoxy}-2-pyridine carboxamide]
herbicidal activity rating, GA (Galium aparine) [1]: 5 (percentage of weeds killed was not less than 80%)
herbicidal activity rating, MC (Matricaria chamomilla) [2]: 2 (percentage of weeds killed was not less than 20% and less than 40%)
herbicidal activity rating, SN (Solanum nigrum) [3]: 5 (percentage of weeds killed was not less than 80%)
herbicidal activity rating, AT (Abutilon theophrasti) [4]: 5 (percentage of weeds killed was not less than 80%)
herbicidal activity rating, CA (Convolvulus arvensis) [5]: 5 (percentage of weeds killed was not less than 80%)
herbicidal activity rating, VH (Veronica hederaefolia) [6]: 5 (percentage of weeds killed was not less than 80%)
herbicidal activity rating, BP (Bidens pilosa) [7]: 3 (percentage of weeds killed was not less than 40% and less than 60%)
herbicidal activity rating, AR (Amaranthus retroflexus) [8]: 5 (percentage of weeds killed was not less than 80%)
herbicidal activity rating, SA (Sinapis arvensis) [9]: 5 (percentage of weeds killed was not less than 80%)
herbicidal activity rating, SM (Stellaria media) [10]: 5 (percentage of weeds killed was not less than 80%)
herbicidal activity rating, CO (Cassia obtusifolia) [11]: 5 (percentage of weeds killed was not less than 80%)

COc1cc(Oc2cccc(C(F)(F)F)c2)nc(C(=O)NCCO)c1 [Compound I-89]
herbicidal activity rating, GA (Galium aparine) [1]: 5 (percentage of weeds killed was not less than 80%)
herbicidal activity rating, MC (Matricaria chamomilla) [2]: 3 (percentage of weeds killed was not less than 40% and less than 60%)
herbicidal activity rating, SN (Solanum nigrum) [3]: 5 (percentage of weeds killed was not less than 80%)
herbicidal activity rating, AT (Abutilon theophrasti) [4]: 4 (percentage of weeds killed was not less than 60% and less than 80%)
herbicidal activity rating, CA (Convolvulus arvensis) [5]: 4 (percentage of weeds killed was not less than 60% and less than 80%)
herbicidal activity rating, VH (Veronica hederaefolia) [6]: 5 (percentage of weeds killed was not less than 80%)
herbicidal activity rating, BP (Bidens pilosa) [7]: 5 (percentage of weeds killed was not less than 80%)
herbicidal activity rating, AR (Amaranthus retroflexus) [8]: 5 (percentage of weeds killed was not less than 80%)
herbicidal activity rating, SA (Sinapis arvensis) [9]: 5 (percentage of weeds killed was not less than 80%)
herbicidal activity rating, SM (Stellaria media) [10]: 5 (percentage of weeds killed was not less than 80%)
herbicidal activity rating, CO (Cassia obtusifolia) [11]: 5 (percentage of weeds killed was not less than 80%)

COc1cc(Oc2cccc(C(F)(F)F)c2)nc(C(=O)NCCOCCF)c1 [Compound I-90]
herbicidal activity rating, GA (Galium aparine) [1]: 5 (percentage of weeds killed was not less than 80%)
herbicidal activity rating, MC (Matricaria chamomilla) [2]: 2 (percentage of weeds killed was not less than 20% and less than 40%)
herbicidal activity rating, SN (Solanum nigrum) [3]: 5 (percentage of weeds killed was not less than 80%)
herbicidal activity rating, AT (Abutilon theophrasti) [4]: 3 (percentage of weeds killed was not less than 40% and less than 60%)
herbicidal activity rating, CA (Convolvulus arvensis) [5]: 4 (percentage of weeds killed was not less than 60% and less than 80%)
herbicidal activity rating, VH (Veronica hederaefolia) [6]: 5 (percentage of weeds killed was not less than 80%)
herbicidal activity rating, BP (Bidens pilosa) [7]: 5 (percentage of weeds killed was not less than 80%)
herbicidal activity rating, AR (Amaranthus retroflexus) [8]: 5 (percentage of weeds killed was not less than 80%)
herbicidal activity rating, SA (Sinapis arvensis) [9]: 5 (percentage of weeds killed was not less than 80%)
herbicidal activity rating, SM (Stellaria media) [10]: 5 (percentage of weeds killed was not less than 80%)
herbicidal activity rating, CO (Cassia obtusifolia) [11]: 5 (percentage of weeds killed was not less than 80%)

COc1cc(Oc2cccc(C(F)(F)F)c2)nc(C(=O)NCCSCCF)c1 [Compound I-92, N-{2-(2-fluoroethylmercapto)ethyl}-4-methoxy-6-{3-(trifluoromethyl)phenoxy}-2-pyridine carboxamide]
herbicidal activity rating, GA (Galium aparine) [1]: 5 (percentage of weeds killed was not less than 80%)
herbicidal activity rating, MC (Matricaria chamomilla) [2]: 3 (percentage of weeds killed was not less than 40% and less than 60%)
herbicidal activity rating, SN (Solanum nigrum) [3]: 5 (percentage of weeds killed was not less than 80%)
herbicidal activity rating, AT (Abutilon theophrasti) [4]: 3 (percentage of weeds killed was not less than 40% and less than 60%)
herbicidal activity rating, CA (Convolvulus arvensis) [5]: 4 (percentage of weeds killed was not less than 60% and less than 80%)
herbicidal activity rating, VH (Veronica hederaefolia) [6]: 5 (percentage of weeds killed was not less than 80%)
herbicidal activity rating, BP (Bidens pilosa) [7]: 4 (percentage of weeds killed was not less than 60% and less than 80%)
herbicidal activity rating, AR (Amaranthus retroflexus) [8]: 5 (percentage of weeds killed was not less than 80%)
herbicidal activity rating, SA (Sinapis arvensis) [9]: 5 (percentage of weeds killed was not less than 80%)
herbicidal activity rating, SM (Stellaria media) [10]: 4 (percentage of weeds killed was not less than 60% and less than 80%)
herbicidal activity rating, CO (Cassia obtusifolia) [11]: 5 (percentage of weeds killed was not less than 80%)

COc1cc(Oc2cccc(C(F)(F)F)c2)nc(C(=O)NCCSCC(F)(F)F)c1 [Compound I-94]
herbicidal activity rating, GA (Galium aparine) [1]: 5 (percentage of weeds killed was not less than 80%)
herbicidal activity rating, MC (Matricaria chamomilla) [2]: 4 (percentage of weeds killed was not less than 60% and less than 80%)
herbicidal activity rating, SN (Solanum nigrum) [3]: 5 (percentage of weeds killed was not less than 80%)
herbicidal activity rating, AT (Abutilon theophrasti) [4]: 5 (percentage of weeds killed was not less than 80%)
herbicidal activity rating, CA (Convolvulus arvensis) [5]: 5 (percentage of weeds killed was not less than 80%)
herbicidal activity rating, VH (Veronica hederaefolia) [6]: 5 (percentage of weeds killed was not less than 80%)
herbicidal activity rating, BP (Bidens pilosa) [7]: 4 (percentage of weeds killed was not less than 60% and less than 80%)
herbicidal activity rating, AR (Amaranthus retroflexus) [8]: 5 (percentage of weeds killed was not less than 80%)
herbicidal activity rating, SA (Sinapis arvensis) [9]: 5 (percentage of weeds killed was not less than 80%)
herbicidal activity rating, SM (Stellaria media) [10]: 4 (percentage of weeds killed was not less than 60% and less than 80%)
herbicidal activity rating, CO (Cassia obtusifolia) [11]: 5 (percentage of weeds killed was not less than 80%)
